Columns and labels:
Format in all cases: physicochemical
[1] = Mutual solubility at 23° C. by naked eye observation when forming the cured film; parameters: key: A case where turbidity was not observed was evaluated as “Good”; a case where turbidity was observed was evaluated as “Bad”; settings: naked eye observation of turbidity
Procedure: 100 parts of the polymerizable liquid crystal compound (1 to 3) was dissolved in 153 parts of cyclopentanone. After the addition of 3.3 parts of a photoinitiator (“Irgacure 379” manufactured by Ciba Specialty Chemicals Co., Ltd.), 6 parts of a polymerizable chiral compound (compound shown by the formula (X)), and 11.6 parts of a surfactant (“KH-40” manufactured by AGC Seimi Chemical Co., Ltd.; 1 wt % cyclopentanone solution), the components were homogenously dissolved to prepare a polymerizable liquid crystal composition solution.
When forming the cured film of the compound, the mutual solubility of the compound at 23° C. was evaluated by naked eye observation. A case where turbidity was not observed was evaluated as “Good”, and a case where turbidity was observed was evaluated as “Bad”.

[2] = Measurement of phase transition temperature (polarizing optical microscope, heated 30° C. to 300° C. and cooled)
Procedure: 10 mg of the polymerizable liquid crystal compound (the polymerizable liquid crystal compounds 1 and 2 obtained in Examples 1 and 2, and a polymerizable liquid crystal compound shown by the following formula (3) (“LC242” manufactured by BASF) (Comparative Example 1) (hereinafter referred to as “polymerizable liquid crystal compound 3”)) was weighed, and placed between two glass substrates provided with a rubbed polyimide alignment film.
The substrates were heated from 30° C. to 300° C. on a hot plate, and then cooled to 30° C. A change in structure during a change in temperature was observed using a polarizing optical microscope (“ECLIPSE LV100POL” manufactured by Nikon Corporation) to determine the phase transition temperature.
In Table 1, “C” indicates “Crystal”, “N” indicates “Nematic”, and “I” indicates “Isotropic”.

[3] = Measurement of optical anisotropy (value Δn) of cured polymer film; settings: cured polymer film 4 μm, 546 nm, Δn=Re/d
Procedure: 100 parts of the polymerizable liquid crystal compound (1 to 3) was dissolved in 233 parts of cyclopentanone. 2.7 parts of a photoinitiator (“Irgacure 907” manufactured by Ciba Specialty Chemicals Co., Ltd.) was homogenously dissolved in the solution. The resulting solution was applied to a glass substrate provided with a rubbed polyimide alignment film using a bar coater (“SA-203” manufactured by Tester Sangyo Co., Ltd., Rod No. 4, shaft diameter: 12.7 mm). After drying the resulting film at 100° C. for 5 minutes on a hot plate, ultraviolet rays (1000 mJ/cm^2) were applied to the film from a mercury lamp to obtain a cured polymer film having a thickness of 4 μm.
The extinction position (θ) of the cured film was measured using an optical microscope (“ECLIPSE E600POL (transmission/reflection type)” manufactured by Nikon Corporation, equipped with a sensitive tint plate, a λ/4 wave plate, a Sénarmont compensator, and a GIF filter (546 nm). The retardation (Re) was calculated by “Re=λ(546 nm)×θ/180”. The value Δn was calculated by “Δn=Re/d” (where, d is the thickness of the liquid crystal layer). The calculation results are shown in Table 1.

[4] = Solubility in cyclopentanone at 60° C., 40 wt % solution; parameters: key: a case where the compound was dissolved in cyclopentanone is indicated by “Good”; a case where the compound was not dissolved in cyclopentanone is indicated by “Bad”; settings: compound concentration 40 wt %
Procedure: The solubility of the compound at 60° C. was evaluated when preparing a solution having a compound concentration of 40 wt %. In Table 1, a case where the compound was dissolved in cyclopentanone is indicated by “Good”, and a case where the compound was not dissolved in cyclopentanone is indicated by “Bad”.

- Mutual solubility [1]: Good
- Liquid crystallinity temperature range ([2]; heated from 30° C. to 300° C., then cooled to 30° C., between glass substrates with rubbed polyimide alignment film): 63 °C
- Δn [3]: 0.142
- Solubility [4]: Good
Compound: C=CC(=O)OCCCCOC(=O)Oc1ccc(C(=O)Oc2ccc(OC(=O)c3ccc(OC(=O)OCCCCOC(=O)C=C)cc3)c(C)c2)cc1 [Polymerizable liquid crystal compound 3]
- liquid crystallinity temperature range (in words) ([2]; summary of Table 1): liquid crystallinity within a narrow temperature range

From patent US8454857B2, “Polymerizable liquid crystal compounds, polymerizable liquid crystal compositions, liquid crystalline polymers and optically anisotropic materials” (Zeon Corporation, priority 2008, dated 2013)
